From PMC3583578 (Oncology Reports, 2012)

Legend:
[1] = tested on: TNFα-induced NF-κB activation; test: Luciferase-based in cellulo NF-κB reporter assay; type: cell-based, human; conditions: K562 cells after transfection
[2] = tested on: 26S protease (chymotrypsin, trypsin- and caspase-like activities); conditions: three proteolytic activities, dose-dependent; cited from earlier work

| Structure (SMILES) | Cytotoxicity at concentrations which inhibited NF-κB activation (in words) [1] | 26S protease inhibition activity (in words) [2] |
| --- | --- | --- |
| COc1cccc(/C=C/C(=O)c2ccccc2O)c1OC [Chalcone 16, 2,3-Dimethoxy-2′-hydroxychalcone] | cytotoxic | – |
| O=C(/C=C/c1ccccc1)c1ccc(O)cc1 [Chalcone 7, 4′-Hydroxychalcone] | – | inhibition activity |
